These results are taken from patent publication US10717981B2, “Therapeutic compositions and methods of making and using the same” (Advanced ReGen Medical Technologies, LLC, priority 2018, dated 2020).

The test system of data set [1] is exosomes of heterochronic cultures. As to the kind of experiment: Exosome production and RNA content in heterochronic culture with AGO2 inhibitor. The class given is cell-based, human. How it is done: Exosomes were isolated from cell culture media by the Total Exosome Isolation Kit (Life Technologies), using a modified version of the manufacturer's protocol. Briefly, 7-day isochronic and heterochronic cultures were established with Exosome-depleted FBS Media Supplement (System Biosciences), and culture media collected on the 4th and 7th days. Cells were pelleted and supernatant transferred to another tube for further clarification at 2000 g for 30 min to remove residual cells and debris. The remaining supernatant was transferred to a fresh tube and 0.5 volumes of Total Exosome Isolation reagent added for overnight incubation at 4° C. The following day samples were centrifuged at 10,000 g for 1 hr at 4° C. to pellet the exosomes for subsequent nanoparticle tracking analysis (NTA) or long-term storage at −80° C. […] For NTA, exosomes were re-suspended in 0.5 mL of PBS and measured using the following parameters: Temperature=25.6+/−0.5° C.; Viscosity=(Water) 0.99+/−0.01 cP; Measurement time=30 sec; Syringe pump speed=30. […]
Total RNA from exosomes and cells was isolated using the miRCURY RNA Isolation Kit (Exiqon) with small and large RNAs fractionated with the RNeasy MinElute Cleanup Kit (Qiagen), both according to manufacturer's recommended specifications. […] Mapped reads from individual samples were then compared to determine fold change for each miRNA. […]

For another data set, the system named is Aged TNCs. As to the kind of experiment: Viability and cell count of aged TNCs cultured with CaMKP inhibitor (Trypan blue exclusion). The class given is cell-based, human. As to the method:
Aged TNCs (20×10^6 cells per sample) were cultured with CaMKP inhibitor (FT-0640107 shown below) at the following concentrations 25 uM, 10 uM, 5 uM, 1 uM & 0 (vehicle). After 48 and 72 hours, cells were harvested, counted using Turk's solution and percent viability assessed using Trypan blue exclusion.
At 72 hours following treatment with the CaMPK inhibitor, FT-0640107, or vehicle, cells were harvested, counted and viability measured using Trypan blue exclusion.

A further data set has as its system aged cells. As to the kind of experiment: Clonogenic assay (CFU-GM) of aged cells after miRNA mimic, siRNA or exosome treatment. The class given is cell-based, human. To be noted: overexpression of candidate miRNAs in aged isochronic cultures, vs negative control RNA. The source says:
Aged TNCs (10×10^6 cells per sample) were nucleofected with microRNA mimics (Qiagen), miRNA inhibitors (Qiagen), negative control siRNA (Qiagen), negative control miRNA inhibitor (Qiagen) or downstream target candidate siRNAs (Origene) using the Amaxa P3 Primary Cell 4D-Nucleofector X Kit (Lonza) on a 4D Nucleofector device (Lonza), according to manufacturer's specific protocol. Briefly, for nucleofection of CD34+ cells used in clonogenic assays, cells were nucleofected with 60 nmol total miRNA mimics, miRNA inhibitors or siRNA using the “human CD34+ cell” program. For nucleofection of T cells used in T cell activation and cell-mediated cytotoxicity assays, cells were nucleofected with 240 nmol total miRNA mimics, miRNA inhibitors or siRNA using the “human unstimulated T cell, high functionality” program.

The test system of another data set is restored cells. As to the kind of experiment: Transwell co-culture of donor and receiver cell samples in presence or absence of manumycin. In kind it is cell-based, human. The source says:
Receiver cell samples (i.e., R1, R2, and R3) were individually paired with donor cell samples (i.e., D1, D2, and D3) and the pairs co-cultured in a transwell culture cell for four weeks. The morphology of the cells was studied at 2 weeks into the co-culture and at 4 weeks of co-culture. Gene expression arrays, protein arrays, and telomere length experiments compared freshly defrosted cells from the collection tubes (referred to as the baseline donor cell sample or baseline receiver cell sample) with cells at the 4-week study endpoint (referred to as restored cell samples).
Protein array analyses were carried out using conditioned media from the baseline donor cell sample or baseline receiver cell sample. The conditioned media was mixed with like cellular protein extracts and applied to the custom-designed arrays which consisted of antibody probes for 68 factors linked to cellular aging and senescence, collectively referred to as the senescence-associated secretory factors (SASF). Quantitative PCR gene array analyses were carried out by extracting RNA from the baseline samples or the co-cultured donor and receiver samples. The data presented represents the average metric determined for either the baseline donor cell sample, the baseline receiver cell sample, or the restored cell sample.
The nature of the soluble particles passing through the permeable membrane in the transwell co-culture experiments was investigated. Specifically, transwell co-culture experiments were carried out in the presence or absence of manumycin. Manumycin, -[(1S,5S,6R)-5-hydroxy-5-[(1E,3E,5E)-7-[(2-hydroxy-5-oxo-1-cyclopenten-1-yl)amino]-7-oxo-1,3,5-heptatrien-1-yl]-2-oxo-7-oxabicyclo[4.1.]hept-3-en-3-yl]-2E,4E,6R-trimethyl,2,4-decadienamide, is an antibiotic that acts a potent and selective farnesytransferase inhibitor. Mannumycin is also known to inhibit the release of exosomes. […] Further support for the role of exosome/microvesicles in mediating the disclosed cellular restoration process is shown in FIG. 36.

Method for aged MPB: TNC vials were quickly thawed at 37° C. and cells added dropwise 1:10 to pre-warmed RPMI-1640 equilibration solution containing 5% HSA, 30 U/mL DNase I (Sigma), 5 mM MgCl2 and 5 mM CaCl2), and incubated at 37° C. for 3-4 hrs. After equilibration, cells were pelleted, washed in RPMI-1640 with 2% BSA and resuspended in complete media containing 10% FBS. Cells were seeded at densities of 10 or 30×10^6 cells/well in 12- or 6-well plates, respectively, containing 0.4 μm transwell inserts (BD Falcon). Heterochronic cultures were established with young cells in the upper chamber and aged cells in the lower chamber. Cells were incubated at 37° C. for 7 days, with 15% of culture media replenished with fresh media on the 4th day. On the 7th day, cells were harvested by centrifugation and evaluated.
Non-adherent cells from LTC-IC assays, as well as cells from isochronic and heterochronic cultures, were studied for progenitors in short-term methylcellulose culture using a CFU-GM readout. Briefly, cultures were initiated by seeding 150 cells/mm^2 in clonogenic media containing 3 U/mL of rhGM-CSF (R&D Systems). After 10 days, cultures were scored by a single blinded observer, and colonies enumerated for CFU-GM.

For `CC(NS(=O)(=O)c1ccc2[nH]c(=O)c(=O)[nH]c2c1)C(=O)O` (centres unmarked) [BCI-137], the “aged MPB clonogenicity” value in the data set on aged MPB (inhibitor added to heterochronic cultures upon initial seeding) is recorded as “significant decrease”. Moreover, in data set [1], the “exosome production and total RNA content” value was “minimal effect”; the “small and miRNA payload of exosomes” value is reported as “depleted”.

Consider `O=C(/C=C/c1ccc(/C=C/C(=O)Nc2ccc(C3=NCCN3)cc2)cc1)Nc1ccc(C2=NCCN2)cc1` [GW4869], for which, in the data set with aged MPB, the “toxicity to the aged cultures” value was “extremely toxic”. For the same compound, in the data set on aged MPB (blocking global exosome production (data not shown)), the restorative phenotype entry is on record as “abrogated”.

Consider `Nc1c(S(=O)(=O)O)cc(S(=O)(=O)[O-])c2cccc(O)c12.[Na+]` [FT-0640107], for which the cell number result in the data set on Aged TNCs (1 μM, 72 hours, vs vehicle control and high dose (25 μM), donor A04) is “increase in cell number”. The viability at 1 µM in the data set with Aged TNCs (Homo sapiens, 1 μM, 72 hours, donor A04) stood at 96.3%. Moreover, in the data set on Aged TNCs (Homo sapiens, high dose of 25 μM, 72 hours, donor A04), the viability at 25 µM came to 93%. Moreover, the “cell viability and cell number” value in the data set on Aged TNCs (donor A03, 48 or 72 hour timepoints) was “no significant difference”.

For the compound “miR-1303: miRNA (miR-1303), UUUAGAGACGGGGUCUUGCUCU (listed as RNA, chemistry not fully specified; listed as Homo sapiens)”, in the data set with aged cells, the aged colony formation entry was “significant effect”.

Regarding `CCCC[C@@H](C)/C=C(C)/C=C(\C)C(=O)NC1=C[C@@](O)(/C=C/C=C/C=C/C(=O)NC2=C(O)CCC2=O)[C@@H]2O[C@@H]2C1=O` [manumycin, -[(1S,5S,6R)-5-hydroxy-5-[(1E,3E,5E)-7-[(2-hydroxy-5-oxo-1-cyclopenten-1-yl)amino]-7-oxo-1,3,5-heptatrien-1-yl]-2-oxo-7-oxabicyclo[4.1.]hept-3-en-3-yl]-2E,4E,6R-trimethyl,2,4-decadienamide], in the data set on restored cells (5 μM, vs absence of manumycin), the “morphology of restored cells” value is recorded as “less robust morphology”. Also, the “telomere length of restored cell sample” value in the data set on restored cells (R1-D1 pair, presence vs absence of manumycin) was “decreased”. Further, the “gene expression of restored cell samples” value in the data set on restored cells (co-cultured in the presence of manumycin) is “did not display a change in expression levels similar to those observed in the absence of manumycin”. Moreover, the “protein expression (senescence-related factors) of restored cell samples” value in the data set on restored cells (vs co-culture in the absence of manumycin) is on record as “elevated levels of all proteins investigated”.

The viability is the share of living cells, or the viability signal relative to a control.
